Measured values: patent publication US20240217990A1 (Gilead Sciences, Inc., priority 2021, published 2024)

Columns and labels:
TLR7 = target: T1, TLR7 (Homo sapiens, UniProt Q9NYK1); assay: TLR7 human PBMC cell-based assay (antagonist, GS-986 stimulated cytokine release); conditions: human PBMCs; TLR7 agonist GS-986 400 nM, 6 hours; cytokines (IL-6 and IFNα) in supernatant; read-out: TLR-7 EC50
T1 construct: Human peripheral blood mononuclear cells (PBMCs) consist of lymphocytes, monocytes and dendritic cells that express TLR7, TLR8 and TLR9; endogenous in cells; host or cells: cryopreserved human PBMCs from healthy donors
T1 sequence (Q9NYK1 27-1049): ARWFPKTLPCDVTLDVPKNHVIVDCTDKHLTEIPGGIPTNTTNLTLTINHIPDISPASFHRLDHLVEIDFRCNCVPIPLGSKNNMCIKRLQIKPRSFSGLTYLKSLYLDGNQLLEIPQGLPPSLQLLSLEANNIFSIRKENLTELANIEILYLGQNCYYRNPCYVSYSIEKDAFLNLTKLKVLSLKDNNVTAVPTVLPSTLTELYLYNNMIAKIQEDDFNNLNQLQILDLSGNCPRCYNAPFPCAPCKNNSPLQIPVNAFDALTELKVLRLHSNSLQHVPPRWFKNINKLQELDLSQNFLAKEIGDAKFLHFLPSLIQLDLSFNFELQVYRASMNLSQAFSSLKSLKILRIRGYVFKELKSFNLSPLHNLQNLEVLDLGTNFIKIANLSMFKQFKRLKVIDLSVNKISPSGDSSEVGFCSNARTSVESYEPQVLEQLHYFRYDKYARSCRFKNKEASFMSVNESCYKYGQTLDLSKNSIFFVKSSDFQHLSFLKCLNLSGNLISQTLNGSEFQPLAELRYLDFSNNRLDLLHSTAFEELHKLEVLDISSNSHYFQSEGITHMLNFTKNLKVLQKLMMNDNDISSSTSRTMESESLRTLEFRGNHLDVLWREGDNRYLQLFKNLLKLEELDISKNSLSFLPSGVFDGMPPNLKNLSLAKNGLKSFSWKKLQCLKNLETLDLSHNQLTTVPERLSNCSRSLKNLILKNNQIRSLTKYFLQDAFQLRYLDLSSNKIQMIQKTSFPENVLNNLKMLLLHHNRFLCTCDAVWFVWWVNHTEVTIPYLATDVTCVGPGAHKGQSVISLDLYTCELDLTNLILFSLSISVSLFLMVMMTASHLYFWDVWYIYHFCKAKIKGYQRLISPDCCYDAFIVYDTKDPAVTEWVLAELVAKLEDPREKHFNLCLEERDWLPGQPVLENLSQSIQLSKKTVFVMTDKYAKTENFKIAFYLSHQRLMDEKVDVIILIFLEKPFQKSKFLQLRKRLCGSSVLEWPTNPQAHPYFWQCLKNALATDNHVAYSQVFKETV
Summary of the method: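 Cryopreserved healthy-donor PBMCs (100,000/well, RPMI-1640 + 10% FBS) pre-incubated 1 h at 37 °C with antagonist (10-point dose response, quadruplicate), then stimulated 6 h with GS-986 at 400 nM final. Supernatant IL-6 and IFNα measured by electrochemiluminescence immunoassay; EC50 from sigmoidal fit.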

TLR8 = target: T2, TLR8 (Homo sapiens, UniProt Q9NR97); assay: TLR8 human PBMC cell-based assay (antagonist, Compound A stimulated cytokine release); conditions: human PBMCs; TLR8 agonist Compound A 800 nM, 6 hours; cytokines (TNFa and IL 12p40) in supernatant; read-out: TLR-8 EC50
T2 construct: Human peripheral blood mononuclear cells (PBMCs) consist of lymphocytes, monocytes and dendritic cells that express TLR7, TLR8 and TLR9; endogenous in cells; host or cells: cryopreserved human PBMCs from healthy donors
T2 sequence (Q9NR97 27-1041): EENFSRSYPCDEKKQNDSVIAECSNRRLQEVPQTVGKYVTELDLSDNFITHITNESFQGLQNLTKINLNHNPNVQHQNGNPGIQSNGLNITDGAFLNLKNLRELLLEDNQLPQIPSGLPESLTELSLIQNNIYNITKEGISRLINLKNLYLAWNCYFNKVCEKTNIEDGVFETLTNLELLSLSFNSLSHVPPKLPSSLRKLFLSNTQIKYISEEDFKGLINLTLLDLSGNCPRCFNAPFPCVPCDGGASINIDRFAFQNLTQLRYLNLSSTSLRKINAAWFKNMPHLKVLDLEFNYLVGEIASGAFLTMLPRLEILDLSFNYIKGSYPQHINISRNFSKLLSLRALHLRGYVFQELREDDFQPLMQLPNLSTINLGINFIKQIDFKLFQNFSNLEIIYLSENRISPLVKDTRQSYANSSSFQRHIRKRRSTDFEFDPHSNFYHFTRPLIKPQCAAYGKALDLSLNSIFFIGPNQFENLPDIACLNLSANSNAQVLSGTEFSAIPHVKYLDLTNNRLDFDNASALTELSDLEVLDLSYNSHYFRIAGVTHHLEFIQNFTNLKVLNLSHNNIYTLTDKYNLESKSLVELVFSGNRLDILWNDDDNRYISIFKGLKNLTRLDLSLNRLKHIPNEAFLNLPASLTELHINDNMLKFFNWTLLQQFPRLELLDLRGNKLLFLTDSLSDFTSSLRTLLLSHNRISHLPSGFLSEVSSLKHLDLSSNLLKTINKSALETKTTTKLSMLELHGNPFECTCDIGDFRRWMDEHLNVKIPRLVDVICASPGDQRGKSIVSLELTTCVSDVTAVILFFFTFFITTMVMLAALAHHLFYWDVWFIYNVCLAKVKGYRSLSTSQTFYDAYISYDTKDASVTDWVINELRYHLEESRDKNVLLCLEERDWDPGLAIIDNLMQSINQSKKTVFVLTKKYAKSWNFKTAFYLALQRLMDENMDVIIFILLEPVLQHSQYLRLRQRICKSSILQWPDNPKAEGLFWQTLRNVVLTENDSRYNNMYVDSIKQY
Summary of the method: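 Cryopreserved donor PBMCs (100,000/well, RPMI + 10% FBS) were preincubated 1 h with antagonist (10-point dose response, quadruplicate), then stimulated with Compound A (800 nM final) for 6 h at 37 °C. TNFa and IL-12p40 in supernatants were measured by electrochemiluminescence; sigmoidal fits gave EC50.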

Compound	EC50 (TLR7) [nM]	EC50 (TLR8) [nM]
Cc1cc(-c2[nH]c3cc(C(=O)N4CCC[C@H]5NCC[C@H]54)sc3c2C(C)C)cn2ncnc12 [Example 108]	0.6	2.8
Cc1cc(-c2[nH]c3cc(C(=O)N4CCCC5CNCC54)sc3c2C(C)C)cn2ncnc12 (stereo not shown) [Example 109]	1.4	18.2
Cc1cc(-c2[nH]c3cc(C(=O)N4CCC[C@H]5NCCC[C@H]54)sc3c2C(C)C)cn2ncnc12 [Example 110]	0.1	0.8
Cc1cc(-c2[nH]c3cc(C(=O)N4CCCC(CN)C4)sc3c2C(C)C)cn2ncnc12 (stereo not shown) [Example 111]	1.5	7.2
Cc1cc(-c2[nH]c3cc(C(=O)N4CCCC(CN(C)C)C4)sc3c2C(C)C)cn2ncnc12 (stereo not shown) [Example 112]	2.9	6.4
Cc1cc(-c2[nH]c3cc(C(=O)N(C)CC4CCNCC4)sc3c2C(C)C)cn2ncnc12 [Example 113]	3.7	54.5
Cc1cc(-c2[nH]c3cc(C(=O)N4CC(N)C4)sc3c2C(C)C)cn2ncnc12 [Example 114]	12.7	7.5
Cc1cc(-c2[nH]c3cc(C(=O)N(C)C4CNC4)sc3c2C(C)C)cn2ncnc12 [Example 115]	3	38
Cc1cc(-c2[nH]c3cc(C(=O)N4CCNC[C@H]4c4ccccc4)sc3c2C(C)C)cn2ncnc12 [Example 116]	16.2	14
Cc1cc(-c2[nH]c3cc(C(=O)N4CCNCC4c4ccc(C(F)(F)F)cc4)sc3c2C(C)C)cn2ncnc12 (stereo not shown) [Example 117]	209	47.8
Cc1cc(-c2[nH]c3cc(C(=O)N4CCn5c(nnc5C(F)(F)F)C4)sc3c2C(C)C)cn2ncnc12 [Example 118]	18.9	47.8
Cc1cc(-c2[nH]c3cc(C(=O)N4CCN[C@@H](c5ccccc5)C4)sc3c2C(C)C)cn2ncnc12 [Example 119]	42.4	0.3
Cc1cc(-c2[nH]c3cc(C(=O)N4CCC5(CCNCC5)C4)sc3c2C(C)C)cn2ncnc12 [Example 120]	13	19.4
Cc1cc(-c2[nH]c3cc(C(=O)N4CCC5(CCNC5)CC4)sc3c2C(C)C)cn2ncnc12 [Example 121]	1.2	9
Cc1cc(-c2[nH]c3cc(C(=O)N4CCN[C@@H](CO)C4)sc3c2C(C)C)cn2ncnc12 [Example 122]	0.9	2.6
Cc1cc(-c2[nH]c3cc(C(=O)N4C[C@@H](C)NC[C@@H]4C)sc3c2C(C)C)cn2ncnc12 [Example 123]	1.3	0.5
Cc1cc(-c2[nH]c3cc(C(=O)N4C[C@H](C)NC[C@H]4C)sc3c2C(C)C)cn2ncnc12 [Example 124]	0.5	1.7
Cc1cc(-c2[nH]c3cc(C(=O)N4CCN[C@@H](C)C4)sc3c2C(C)C)cn2ncnc12 [Example 125]	1.2	0.3
Cc1cc(-c2[nH]c3cc(C(=O)N4CC5(CCNCC5)C4)sc3c2C(C)C)cn2ncnc12 [Example 126]	2.5	15.7

Compound	EC50 (TLR7) [nM]	EC50 (TLR8) [nM]
Cc1cc(-c2[nH]c3cc(C(=O)N4C[C@@H](C)N[C@H](C)C4)sc3c2C(C)C)cn2ncnc12 [Example 127]	1.5	0.5
Cc1cc(-c2[nH]c3cc(C(=O)N4CCN[C@H](C)C4)sc3c2C(C)C)cn2ncnc12 [Example 128]	1.1	0.8
Cc1cc(-c2[nH]c3cc(C(=O)N4CCN[C@H](c5ccccc5)C4)sc3c2C(C)C)cn2ncnc12 [Example 129]	18.1	2.2
Cc1cc(-c2[nH]c3cc(C(=O)N4CCNC(C(F)F)C4)sc3c2C(C)C)cn2ncnc12 (stereo not shown) [Example 130]	40.7	28.6
Cc1cc(-c2[nH]c3cc(C(=O)N4C[C@H]5NCCO[C@@H]5C4)sc3c2C(C)C)cn2ncnc12 [Example 131]	21	6.7
Cc1cc(-c2[nH]c3cc(C(=O)N4C[C@@H]5NCCO[C@@H]5C4)sc3c2C(C)C)cn2ncnc12 [Example 132]	33.7	26.9
Cc1cc(-c2[nH]c3cc(C(=O)N(C)C4CCN(CC(F)F)CC4)sc3c2C(C)C)cn2ncnc12 [Example 134]	88.7	94.1
CCN(C(=O)c1cc2[nH]c(-c3cc(C)c4ncnn4c3)c(C(C)C)c2s1)C1CCNCC1 [Example 135]	0.4	9.9
Cc1cc(-c2[nH]c3cc(C(=O)N(C)CCN(C)C)sc3c2C(C)C)cn2ncnc12 [Example 136]	0.7	29.8
Cc1cc(-c2[nH]c3cc(C(=O)N(C)Cc4cccnc4)sc3c2C(C)C)cn2ncnc12 [Example 137]	44.3	137
Cc1cc(-c2[nH]c3cc(C(=O)N(C)C4CCN(C5COC5)CC4)sc3c2C(C)C)cn2ncnc12 [Example 139]	15	10.8
Cc1cc(-c2[nH]c3cc(C(=O)N(C)C4CCN(CCO)CC4)sc3c2C(C)C)cn2ncnc12 [Example 141]	1.3	2.7
Cc1cc(-c2[nH]c3cc(C(=O)N(C4CCNCC4)C4CC4)sc3c2C(C)C)cn2ncnc12 [Example 143]	0.7	27
Cc1cc(-c2[nH]c3cc(C(=O)N4CC[C@@H](N(C)C)C4)sc3c2C(C)C)cn2ncnc12 [Example 144]	5.4	1.1
Cc1cc(-c2[nH]c3cc(C(=O)N4CCC[C@H]4CN)sc3c2C(C)C)cn2ncnc12 [Example 145]	3.8	46.3
Cc1cc(-c2[nH]c3cc(C(=O)N4CC[C@@H](CN)C4)sc3c2C(C)C)cn2ncnc12 [Example 146]	19	27.2
Cc1cc(-c2[nH]c3cc(C(=O)N4CC(N(C)C)C4)sc3c2C(C)C)cn2ncnc12 [Example 147]	152	2.4
Cc1cc(-c2[nH]c3cc(C(=O)N4CCNC[C@H]4C)sc3c2C(C)C)cn2ncnc12 [Example 148]	4.8	11
Cc1cc(-c2[nH]c3cc(C(=O)N4CCNC[C@@H]4C)sc3c2C(C)C)cn2ncnc12 [Example 149]	2.8	10.5
